# Publication PMC11714206, “Massively Parallel Screening of Toll/Interleukin‐1 Receptor (TIR)‐Derived Peptides Reveals Multiple Toll‐Like Receptors (TLRs)‐Targeting Immunomodulatory Peptides” (Advanced Science, 2024)
# Target: T1, MyD88^TIR (Homo sapiens, UniProt Q99836)
# T1 construct: MyD88 (residues 148–296); 6xHis; made in house; host or cells: E. coli BL21 (DE3)
# Assay: T‐Surf phage library (P8 and P3) selection against MyD88^TIR, four rounds, NGS read counts
# Type: binding
# Settings: for P8_MyD88 Rank (after) / P8_MyD88 Rank (before): P8 library; for P3_MyD88 Rank (after) / P3_MyD88 Rank (before): P3 library; for Population: 4th round of selection against MyD88 TIR, share of NGS reads
# Outline: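 Read counts come from NGS of phage pools after the fourth selection round, barcoded by 20-cycle PCR and filtered for quality ≥30. Each round: phage incubated 1 h at RT on immobilised TIR protein (5 µg mL^−1, BSA-blocked), washed, HCl-eluted and amplified in E. coli TG1.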
# [1] = selection against MyD88, rank after grouping
# [2] = selection against MyD88, rank before grouping
# [3] = P8_MyD88: rank by count after grouping
# [4] = P8_MyD88: rank by count before grouping
# [5] = selection against MyD88 TIR, rank by count after grouping
# [6] = selection against MyD88 TIR, rank by count before grouping
# [7] = P8_MyD88: rank by NGS read count after grouping
# [8] = P8_MyD88: rank by NGS read count before grouping
# [9] = 4R selection against MyD88, rank after grouping
# [10] = 4R selection against MyD88, rank before grouping
# [11] = P3_MyD88 pool: P3 T-Surf phage library
# [12] = selection against MyD88, rank by count after grouping
# [13] = selection against MyD88, rank by count before grouping
# [14] = P8_MyD88 pool: P8 T-Surf phage library
# [15] = P3_MyD88: rank by count after grouping
# [16] = P3_MyD88: rank by count before grouping
# T1 sequence (Q99836 148-296): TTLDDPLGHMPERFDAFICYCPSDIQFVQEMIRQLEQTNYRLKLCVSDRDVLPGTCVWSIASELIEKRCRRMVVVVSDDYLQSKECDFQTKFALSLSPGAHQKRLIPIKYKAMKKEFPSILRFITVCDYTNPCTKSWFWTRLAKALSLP
sequence,measurement,setting,value
LGYHWIGWEYCVGIED,P8_MyD88 Rank (after),[1],482
same,P8_MyD88 Rank (before),[2],3246
PQELEWFHKRLVRLIL,Rank (after),[3],455
same,Rank (before),[4],3496
DWVWDYLLPNLEGQR,P8_MyD88 Rank (after),[5],264
same,P8_MyD88 Rank (before),[6],550
YLLLRVLQTIFLRRTD,Rank (after),[7],898
same,Rank (before),[8],1967
DPQDLDWFYERQVRLF,Rank (after),[7],915
same,Rank (before),[8],2794
DPQDLEWFYERLFSR,Rank (after),[3],450
same,Rank (before),[4],1113
SLRRNLVSNLIEEFIR,P3_MyD88 Rank (after),[9],580
same,P3_MyD88 Rank (before),[10],3076
YLRLEVIWFWENRRYA,P8_MyD88 Rank (after),[1],491
same,P8_MyD88 Rank (before),[2],2075
LGYHWRDWEYFVGLED,P8_MyD88 Rank (after),[5],280
same,P8_MyD88 Rank (before),[6],3302
EAFAVHENISKKTLK,P3_MyD88 Rank (after),[9],611
same,P3_MyD88 Rank (before),[10],2194
SENYATSPWALDELVRIVEA,P3_MyD88 Rank (after),[5],258
same,P3_MyD88 Rank (before),[6],1170
PQDRERFFERLFSLF,Rank (after),[7],998
same,Rank (before),[8],3490
DPQELEWFYERLLSQM,P8_MyD88 Rank (after),[9],620
same,P8_MyD88 Rank (before),[10],2993
DPQDLDWFYERLVSQM,Rank (after),[3],183
same,Rank (before),[4],466
SSFREGLWRLLELTKK,Population,[11],0.0032%
QDLEQFYERLVSLI,P8_MyD88 Rank (after),[12],685
same,P8_MyD88 Rank (before),[13],3567
IDDDHLTYLVRLLLS,P8_MyD88 Rank (after),[9],597
same,P8_MyD88 Rank (before),[10],3635
LGYHWIDWEYFEGIAD,Rank (after),[7],928
same,Rank (before),[8],3268
WALNELLKILQAKIFL,Rank (after),[7],905
same,Rank (before),[8],1547
SAAYGDYWVRQIRMIE,Rank (after),[3],469
same,Rank (before),[4],3707
KEREFGAQRAGKWRAA,P3_MyD88 Rank (after),[9],670
same,P3_MyD88 Rank (before),[10],3663
QDLEQFYERLISRILQ,Rank (after),[3],113
same,Rank (before),[4],121
same,Population,[14],0.0181%
WALDELLQILHPRELV,Rank (after),[7],981
same,Rank (before),[8],1460
DPQDLDWFYERLASLL,Rank (after),[3],135
same,Rank (before),[4],720
SSFREGLWRLLELCKK,Population,[11],0.0032%
KEVEGWRDALTKVACR,Rank (after),[15],109
same,Rank (before),[16],1305
SSFREGLWRLLELSQN,P3_MyD88 Rank (after),[1],544
same,P3_MyD88 Rank (before),[2],3171
SSVRGGRWGLVELGKK,Rank (after),[15],455
same,Rank (before),[16],3269
GIFREGLWRLLELSKK,Rank (after),[15],105
same,Rank (before),[16],919
NYASSPWALDELVKIF,P8_MyD88 Rank (after),[5],197
same,P8_MyD88 Rank (before),[6],295
SNFREGLWRQQELSKK,Rank (after),[15],438
same,Rank (before),[16],3282
YTALTNSGFHTFLDNY,Rank (after),[15],119
same,Rank (before),[16],1665
GEDTRYTFTGHLHRYLVQRGV,P3_MyD88 Rank (after),[5],240
same,P3_MyD88 Rank (before),[6],917
DPQEQVGICVRLMEAL,P8_MyD88 Rank (after),[9],585
same,P8_MyD88 Rank (before),[10],3020
SSFREGLWHLLVLSKK,Rank (after),[15],160
same,Rank (before),[16],3197
YYDSRWALDELWLILEQR,P8_MyD88 Rank (after),[12],749
same,P8_MyD88 Rank (before),[13],1673
SSFREGMWRLLELSKK,Population,[11],0.00408%
GNDVLGRKGLRVGSKD,Rank (after),[15],437
same,Rank (before),[16],1875
WALNELLQILHARELF,Population,[14],0.00617%
NYASSSWALNELLEILK,P8_MyD88 Rank (after),[1],506
same,P8_MyD88 Rank (before),[2],3849
QEVEGWRDALTKVASM,P3_MyD88 Rank (after),[5],226
same,P3_MyD88 Rank (before),[6],2893
YTALTNSGCHTFRVND,P3_MyD88 Rank (after),[12],689
same,P3_MyD88 Rank (before),[13],1657
VANILGCHWIDWECFV,Rank (after),[3],464
same,Rank (before),[4],2165
WALDELRKNLYAIETM,P8_MyD88 Rank (after),[12],701
same,P8_MyD88 Rank (before),[13],1502
WALDELLKILHADETM,P8_MyD88 Rank (after),[12],687
same,P8_MyD88 Rank (before),[13],1492
YASSSWYLDELCIFC,Rank (after),[7],951
same,Rank (before),[8],1858
EWIREQLRPALKAQ,Rank (after),[15],147
same,Rank (before),[16],651
DPQDLDWFLNVWLTW,P8_MyD88 Rank (after),[1],575
same,P8_MyD88 Rank (before),[2],2743
IDDEHLTYLGRLLLSR,P8_MyD88 Rank (after),[9],580
same,P8_MyD88 Rank (before),[10],3649
YASSSWALDELWNIF,Rank (after),[3],167
same,Rank (before),[4],193
same,Population,[14],0.00617%
NYGSSSWALEELAHIIE,P8_MyD88 Rank (after),[9],665
same,P8_MyD88 Rank (before),[10],3831
DTKLKKGESIAPERLP,Rank (after),[15],116
same,Rank (before),[16],973
DPHQHQAFWDRLWEKL,P8_MyD88 Rank (after),[5],286
same,P8_MyD88 Rank (before),[6],560
DPQDLQWSYERLVSRI,Rank (after),[7],938
same,Rank (before),[8],2939
YARSDDNYYYWVTHVLLRHL,P8_MyD88 Rank (after),[1],507
same,P8_MyD88 Rank (before),[2],1764
DPQDLEWFYERLLAR,P8_MyD88 Rank (after),[1],515
same,P8_MyD88 Rank (before),[2],2879
YASSSWALDELLQILW,P8_MyD88 Rank (after),[12],720
same,P8_MyD88 Rank (before),[13],1891
SPLSYMWLDELVEIME,Rank (after),[7],944
same,Rank (before),[8],3764
SSFREALWRLIELSTK,P3_MyD88 Rank (after),[9],667
same,P3_MyD88 Rank (before),[10],3223
ELDFSHFWLFEGHATGEA,Rank (after),[3],127
same,Rank (before),[4],141
same,Population,[14],0.0116%
LGFNWMDWEYFVGIEG,P8_MyD88 Rank (after),[9],671
same,P8_MyD88 Rank (before),[10],3216
LGYHWVDWGCFVGIAD,Rank (after),[7],958
same,Rank (before),[8],3232
WALDELLQILHARELLQIA,P8_MyD88 Rank (after),[9],632
same,P8_MyD88 Rank (before),[10],1453
YLLLSVFQTIFARRTD,Population,[14],0.00771%
WALNELLEILYANETM,P8_MyD88 Rank (after),[9],663
same,P8_MyD88 Rank (before),[10],1535
NQWRNALTAAANLGGL,P3_MyD88 Rank (after),[12],701
same,P3_MyD88 Rank (before),[13],3513
DPQDLDWFYERLVNLF,Population,[14],0.00925%
LGYQLIDWEYFVGIEN,Rank (after),[7],937
same,Rank (before),[8],3319
DPQDLDWFYERLFTQM,P8_MyD88 Rank (after),[5],267
same,P8_MyD88 Rank (before),[6],2763
SSFREGLWRLQALSKK,Rank (after),[15],458
same,Rank (before),[16],3185
FLSYRALEKRFGPLVQ,P3_MyD88 Rank (after),[1],536
same,P3_MyD88 Rank (before),[2],1378
YASYDDNDYYWDPCAAASS,P8_MyD88 Rank (after),[1],511
same,P8_MyD88 Rank (before),[2],1815
NELIDVGHSYSMHRGG,P3_MyD88 Rank (after),[12],743
same,P3_MyD88 Rank (before),[13],3387
NFGYSTWALDELVKIM,Rank (after),[3],123
same,Rank (before),[4],132
same,Population,[14],0.0135%
FDASTWFFQEWARFL,Rank (after),[7],930
same,Rank (before),[8],1313
PQDLDWFYERLESLF,Rank (after),[7],1019
same,Rank (before),[8],3427
DTKLKKGRKHCAGTAA,Rank (after),[15],454
same,Rank (before),[16],2099
ERLFIETQNVNKDLIG,P3_MyD88 Rank (after),[5],264
same,P3_MyD88 Rank (before),[6],2209
